We go through one compound from patent US20100144688A1, “23-Substituted Derivatives of Lupane-type Pentacyclic Triterpenoids” (ADVANCED LIFE SCIENCES, INC., priority 2008, published 2010).

Common to all, as to format: cell-based
The subject of one assay is SK-MEL-2 (melanoma). Put plainly: MTS cell viability assay, SK-MEL-2. The conditions noted are these: 72 h incubation. The protocol:
(§1) Cells were plated, the evening before treatment, for each treatment on 96-well plates (1×10^4 cells/well) in 100 μL volume per well. Analog solutions were prepared by diluting each test compound in DMSO (10 mM) with the appropriate cell growth media for each individual cell line, or in “Universal Media” if several cell lines were to be assayed in parallel, immediately prior to cell treatment. Universal Media consisted of 5 mL sodium pyruvate (100× liquid stock, MediaTech), 5 mL glucose (100×, 45% liquid stock, MediaTech), 5 mL Penicillin/Streptomycin (100× liquid stock, MediaTech), 10 mL sodium bicarbonate (50× liquid stock, MediaTech), 25 mL Fetal Calf Serum, 1.25 mL insulin (4 mg/mL, Gibco) and 449 mL RPMI media with 2 mM L-glutamine for a total volume of 500 mL.
(§2) Cells were treated by aspirating plating media from each well and adding 80 μL of betulinic acid (control) or each analog solution in serial dilutions to the adherent cells. All treatments were performed in triplicate. Growth media (80 μL) was added to 3 blank wells (no cells) to measure background from the growth media. Growth media alone (no DMSO or test compound) was added to 3 wells containing cells to measure the baseline MTS activity. Vehicle (DMSO) control in serial dilutions, added to cells, was also included to monitor basal toxicity from DMSO. Cells were incubated at 37° C. for 72 h, or 120 h for the OVCAR cell lines. MTS reagent (per 96-well plate) were prepared by combining 2 mL of MTS working solution (Cell Titer Aqueous Non-Radioactive Cell Proliferation Assay, Promega, cat#G1112), 100 μL of 0.92 mg/mL phenazine methosulfate/Dulbecco's PBS and 2.1 mL growth media. MTS reagent (40 μL) was added to each well and incubated at 37° C. for 1.5 to 4 h. Plates were gently shaken by hand until solution in each well appeared homogenous. Absorbances at 490 nm were measured on a Wallac Victor II plate reader at multiple time points following the addition of MTS reagent for each plate. Triplicate absorbance (490 nm) measurements were averaged following background (no cell) subtraction for each drug concentration. Percent Cell Viability was calculated for each drug concentration using the following equation:
(§3) {[Absorbance(analog treated)]/[Absorbance(DMSO treated)]}×100%
(§4) Percent viability (y-axis) was plotted against drug concentration (x-axis) and the resulting graph was used to determine the 50% inhibitory concentration (IC50) for each drug.
(§5) Cytotoxicity dose response for the synthesized triterpenoid derivatives in SK-MEL-2 (melanoma), A-375 (melanoma), Daoy (glioblastoma), LN-229 (glioblastoma), OVCAR-3 (ovarian carcinoma), HT-29 (colon carcinoma), MCF-7 (breast carcinoma) cell lines using the standard MTS assay (described above) is summarized in Table 1.

The next assay relates to A-375 (melanoma). The assay is described as follows: MTS cell viability assay, A-375. Particulars: 72 h incubation. On the procedure: as §1, §2, §3, §4, §5
The subject of the next assay is Daoy (glioblastoma). Put plainly: MTS cell viability assay, Daoy. Particulars: 72 h incubation. The protocol: as §1, §2, §3, §4, §5
The test system of another assay is LN-229 (glioblastoma). The assay is described as follows: MTS cell viability assay, LN-229. Particulars: 72 h incubation. The protocol: as §1, §2, §3, §4, §5
Assay [1] has as its system OVCAR-3 (ovarian carcinoma). The assay is described as follows: MTS cell viability assay, OVCAR-3. Particulars: 120 h for the OVCAR cell lines. On the procedure:
as §1
Cells were treated by aspirating plating media from each well and adding 80 μL of betulinic acid (control) or each analog solution in serial dilutions to the adherent cells. […] Absorbances at 490 nm were measured on a Wallac Victor II plate reader at multiple time points following the addition of MTS reagent for each plate. Triplicate absorbance (490 nm) measurements were averaged following background (no cell) subtraction for each drug concentration. Percent Cell Viability was calculated for each drug concentration using the following equation:
{[Absorbance(analog treated)]/[Absorbance(DMSO treated)]}×100% […]

The test system of another assay is HT-29 (colon carcinoma). The assay is described as follows: MTS cell viability assay, HT-29. The conditions noted are these: 72 h incubation. The protocol: as §1, §2, §3, §4, §5
Another assay deals with MCF-7 (breast carcinoma). The assay is described as follows: MTS cell viability assay, MCF-7. The conditions noted are these: 72 h incubation. The protocol: as §1, §2, §3, §4, §5

Each structure is given as a SMILES string.

With `C=C(C)[C@@H]1CC[C@]2(C(=O)O)CC[C@]3(C)[C@H](CC[C@@H]4[C@@]5(C)CC[C@H](O)C(C)(C)[C@@H]5CC[C@]43C)[C@@H]12` [Compound 2, betulinic acid, reference compound], the IC50 in the assay on SK-MEL-2 (melanoma) stood at 33 µM; with A-375 (melanoma), 51 µM; in the assay with Daoy (glioblastoma) it was 31 µM; in the assay with LN-229 (glioblastoma) it was 61 µM; in assay [1], 59 µM; in the assay on HT-29 (colon carcinoma), 37 µM. Moreover, the IC50 with MCF-7 (breast carcinoma) was 50 µM.
